Laboratory results from paper PMC5053573, “Structure-Based Design of Tetrahydroisoquinoline-7-carboxamides as Selective Discoidin Domain Receptor 1 (DDR1) Inhibitors” (Journal of Medicinal Chemistry, 2016).

Legend:
Assay in all cases: biochemical
Conditions in all cases: read-out: %Ctrl @ 1000nM
[1] = biological target: ABL1(M351T)-phosphorylated (Homo sapiens, UniProt P00519, M351T)
BRSK2 = BRSK2 (Homo sapiens, UniProt Q8IWQ3)
CAMK2B = CAMK2B (Homo sapiens, UniProt Q13554)
CSNK1A1 = CSNK1A1 (Homo sapiens, UniProt P48729)
Sequence of CSNK1A1 (P48729 whole entry): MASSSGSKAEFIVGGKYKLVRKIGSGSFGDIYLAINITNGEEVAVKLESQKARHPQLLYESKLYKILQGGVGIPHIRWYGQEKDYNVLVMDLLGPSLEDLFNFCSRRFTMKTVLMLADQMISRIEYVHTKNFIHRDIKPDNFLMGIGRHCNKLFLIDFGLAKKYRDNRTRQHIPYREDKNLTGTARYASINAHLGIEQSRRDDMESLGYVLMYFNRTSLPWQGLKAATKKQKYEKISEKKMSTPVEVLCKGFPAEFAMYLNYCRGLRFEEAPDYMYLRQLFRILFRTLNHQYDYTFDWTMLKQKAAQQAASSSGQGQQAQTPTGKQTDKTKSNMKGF

CSNK1G2 = CSNK1G2 (Homo sapiens, UniProt P78368)
CSNK2A2 = CSNK2A2 (Homo sapiens, UniProt P19784)
EPHA7 = EPHA7 (Homo sapiens, UniProt Q15375)
ERK8 = biological target: T1, ERK8 (Homo sapiens, UniProt Q8TD08)
T1 construct: gene MAPK15

GAK = GAK (Homo sapiens, UniProt O14976)
ICK = biological target: T2, ICK (Homo sapiens, UniProt Q9UPZ9)
T2 construct: gene CILK1

INSR = INSR (Homo sapiens, UniProt P06213)
[2] = biological target: JAK3(JH1domain-catalytic) (Homo sapiens, UniProt P52333)
Sequence of JAK3(JH1domain-catalytic) (P52333 whole entry): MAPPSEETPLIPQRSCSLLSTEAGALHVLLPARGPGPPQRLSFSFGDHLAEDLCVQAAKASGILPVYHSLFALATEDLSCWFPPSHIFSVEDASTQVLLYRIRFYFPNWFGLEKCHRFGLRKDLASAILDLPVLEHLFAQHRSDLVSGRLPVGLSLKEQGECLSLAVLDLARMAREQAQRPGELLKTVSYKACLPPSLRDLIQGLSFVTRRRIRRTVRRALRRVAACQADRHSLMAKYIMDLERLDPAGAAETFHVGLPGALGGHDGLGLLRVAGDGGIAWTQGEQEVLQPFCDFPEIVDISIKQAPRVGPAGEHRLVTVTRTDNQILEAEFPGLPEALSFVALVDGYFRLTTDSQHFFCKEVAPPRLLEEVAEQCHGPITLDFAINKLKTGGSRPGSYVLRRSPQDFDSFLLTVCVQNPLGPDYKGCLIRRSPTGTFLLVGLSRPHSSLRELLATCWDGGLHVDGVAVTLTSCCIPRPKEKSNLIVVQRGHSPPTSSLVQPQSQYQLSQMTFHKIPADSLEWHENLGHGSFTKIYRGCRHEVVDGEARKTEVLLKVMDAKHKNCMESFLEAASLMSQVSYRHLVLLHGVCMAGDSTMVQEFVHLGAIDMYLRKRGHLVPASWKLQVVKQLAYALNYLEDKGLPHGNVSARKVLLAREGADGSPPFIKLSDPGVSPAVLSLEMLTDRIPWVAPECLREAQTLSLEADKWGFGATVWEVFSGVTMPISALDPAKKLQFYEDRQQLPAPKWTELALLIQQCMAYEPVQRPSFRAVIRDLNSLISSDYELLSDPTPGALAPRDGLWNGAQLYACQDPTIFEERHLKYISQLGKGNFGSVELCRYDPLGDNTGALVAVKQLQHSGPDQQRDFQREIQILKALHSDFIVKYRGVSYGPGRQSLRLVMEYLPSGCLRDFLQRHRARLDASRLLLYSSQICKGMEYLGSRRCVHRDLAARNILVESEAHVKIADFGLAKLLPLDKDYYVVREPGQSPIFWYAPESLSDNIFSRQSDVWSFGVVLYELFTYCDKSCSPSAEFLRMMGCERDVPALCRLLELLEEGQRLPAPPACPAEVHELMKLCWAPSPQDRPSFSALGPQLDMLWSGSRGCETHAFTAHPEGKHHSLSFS

LCK = LCK (Homo sapiens, UniProt P06239)
Sequence of LCK (P06239 whole entry): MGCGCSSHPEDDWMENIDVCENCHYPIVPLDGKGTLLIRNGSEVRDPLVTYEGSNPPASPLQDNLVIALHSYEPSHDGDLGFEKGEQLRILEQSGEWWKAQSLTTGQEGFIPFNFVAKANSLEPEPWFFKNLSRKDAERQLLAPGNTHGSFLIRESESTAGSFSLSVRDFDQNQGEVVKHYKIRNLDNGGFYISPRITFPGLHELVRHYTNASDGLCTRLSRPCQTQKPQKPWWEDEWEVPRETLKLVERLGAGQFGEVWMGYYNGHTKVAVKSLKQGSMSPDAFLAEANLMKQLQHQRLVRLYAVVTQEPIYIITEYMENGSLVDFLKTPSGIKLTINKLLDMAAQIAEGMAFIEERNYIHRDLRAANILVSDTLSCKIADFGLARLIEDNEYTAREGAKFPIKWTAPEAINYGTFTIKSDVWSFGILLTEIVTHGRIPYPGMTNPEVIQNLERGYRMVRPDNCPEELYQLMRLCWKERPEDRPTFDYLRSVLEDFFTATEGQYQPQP

LKB1 = biological target: T3, LKB1 (Homo sapiens, UniProt Q15831)
T3 construct: gene STK11

MAP3K15 = MAP3K15 (Homo sapiens, UniProt Q6ZN16)
MAP3K2 = MAP3K2 (Homo sapiens, UniProt Q9Y2U5)
MEK1 = biological target: T4, MEK1 (Homo sapiens, UniProt Q02750)
T4 construct: gene MAP2K1

MEK6 = biological target: T5, MEK6 (Homo sapiens, UniProt P52564)
T5 construct: gene MAP2K6
T5 sequence (P52564 whole entry): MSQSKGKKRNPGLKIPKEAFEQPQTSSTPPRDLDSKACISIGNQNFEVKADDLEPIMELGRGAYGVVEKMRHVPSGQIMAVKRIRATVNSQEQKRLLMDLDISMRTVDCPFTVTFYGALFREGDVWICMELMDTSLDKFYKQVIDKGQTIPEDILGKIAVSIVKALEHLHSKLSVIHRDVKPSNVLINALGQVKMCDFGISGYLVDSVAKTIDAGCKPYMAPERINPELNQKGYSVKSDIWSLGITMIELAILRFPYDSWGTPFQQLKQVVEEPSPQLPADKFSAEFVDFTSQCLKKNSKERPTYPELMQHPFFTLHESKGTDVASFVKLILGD

MET(Y1235D) = MET(Y1235D) (Homo sapiens, UniProt P08581, Y1235D)
MKK7 = biological target: T6, MKK7 (Homo sapiens, UniProt O14733)
T6 construct: gene MAP2K7

MYLK2 = MYLK2 (Homo sapiens, UniProt Q9H1R3)
Sequence of MYLK2 (Q9H1R3 whole entry): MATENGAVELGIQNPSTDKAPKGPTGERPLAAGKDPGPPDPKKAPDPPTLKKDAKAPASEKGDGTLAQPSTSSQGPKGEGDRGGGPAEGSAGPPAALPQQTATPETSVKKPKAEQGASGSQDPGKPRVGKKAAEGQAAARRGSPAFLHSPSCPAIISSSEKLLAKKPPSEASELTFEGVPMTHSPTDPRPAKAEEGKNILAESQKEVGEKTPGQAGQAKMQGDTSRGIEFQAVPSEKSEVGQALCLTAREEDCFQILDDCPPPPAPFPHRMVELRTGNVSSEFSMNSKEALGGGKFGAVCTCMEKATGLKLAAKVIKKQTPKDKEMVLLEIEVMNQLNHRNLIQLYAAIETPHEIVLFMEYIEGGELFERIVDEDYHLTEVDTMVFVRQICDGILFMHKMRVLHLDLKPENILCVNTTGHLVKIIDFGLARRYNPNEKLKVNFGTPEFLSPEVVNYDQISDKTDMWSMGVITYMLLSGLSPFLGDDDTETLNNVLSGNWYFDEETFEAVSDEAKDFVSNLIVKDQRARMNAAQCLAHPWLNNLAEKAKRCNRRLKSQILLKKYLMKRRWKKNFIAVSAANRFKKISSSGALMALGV

NEK7 = NEK7 (Homo sapiens, UniProt Q8TDX7)
Sequence of NEK7 (Q8TDX7 whole entry): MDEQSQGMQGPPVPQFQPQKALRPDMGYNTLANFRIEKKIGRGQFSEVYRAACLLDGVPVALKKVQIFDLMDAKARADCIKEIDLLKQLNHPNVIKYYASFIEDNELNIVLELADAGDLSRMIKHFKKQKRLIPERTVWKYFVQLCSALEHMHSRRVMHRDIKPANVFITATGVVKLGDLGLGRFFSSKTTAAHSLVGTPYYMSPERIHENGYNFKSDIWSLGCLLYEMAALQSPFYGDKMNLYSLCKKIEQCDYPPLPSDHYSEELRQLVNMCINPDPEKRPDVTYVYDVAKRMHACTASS

NIK = biological target: T7, NIK (Homo sapiens, UniProt Q99558)
T7 construct: gene MAP3K14

NLK = NLK (Homo sapiens, UniProt Q9UBE8)
PIK3C2B = PIK3C2B (Homo sapiens, UniProt O00750)
PRKD3 = PRKD3 (Homo sapiens, UniProt O94806)
Sequence of PRKD3 (O94806 whole entry): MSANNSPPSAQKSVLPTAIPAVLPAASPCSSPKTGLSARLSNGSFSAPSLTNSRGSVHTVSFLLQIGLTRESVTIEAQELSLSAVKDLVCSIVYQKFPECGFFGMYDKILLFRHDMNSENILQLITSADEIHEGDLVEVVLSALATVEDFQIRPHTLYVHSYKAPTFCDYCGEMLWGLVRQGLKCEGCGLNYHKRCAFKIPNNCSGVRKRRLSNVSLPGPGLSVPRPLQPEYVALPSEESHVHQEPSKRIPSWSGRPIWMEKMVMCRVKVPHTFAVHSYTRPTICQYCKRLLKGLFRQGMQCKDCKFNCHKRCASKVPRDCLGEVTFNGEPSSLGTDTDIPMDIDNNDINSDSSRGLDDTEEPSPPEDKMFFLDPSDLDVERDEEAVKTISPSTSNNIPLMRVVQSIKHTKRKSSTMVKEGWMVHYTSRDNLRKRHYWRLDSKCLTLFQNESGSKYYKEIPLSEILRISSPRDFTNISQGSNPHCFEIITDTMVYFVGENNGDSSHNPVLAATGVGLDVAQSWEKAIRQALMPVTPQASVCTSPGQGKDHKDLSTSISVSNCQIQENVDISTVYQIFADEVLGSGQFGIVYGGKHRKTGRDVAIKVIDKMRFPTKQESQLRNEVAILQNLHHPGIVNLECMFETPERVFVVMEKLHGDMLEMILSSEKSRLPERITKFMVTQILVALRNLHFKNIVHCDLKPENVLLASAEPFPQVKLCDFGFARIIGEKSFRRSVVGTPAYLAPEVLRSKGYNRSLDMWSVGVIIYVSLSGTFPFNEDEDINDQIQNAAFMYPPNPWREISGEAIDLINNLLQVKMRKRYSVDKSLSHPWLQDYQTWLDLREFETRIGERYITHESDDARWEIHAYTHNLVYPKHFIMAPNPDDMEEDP

PRKX = PRKX (Homo sapiens, UniProt P51817)
RIPK4 = RIPK4 (Homo sapiens, UniProt P57078)
[3] = biological target: RPS6KA5(Kin.Dom.1-N-terminal) (Homo sapiens, UniProt O75582)
SRC = SRC (Homo sapiens, UniProt P12931)
SRMS = SRMS (Homo sapiens, UniProt Q9H3Y6)
TAK1 = biological target: T8, TAK1 (Homo sapiens, UniProt O43318)
T8 construct: gene MAP3K7

TNNI3K = TNNI3K (Homo sapiens, UniProt Q59H18)
p38-alpha = biological target: T9, p38-alpha (Homo sapiens, UniProt Q16539)
T9 construct: gene MAPK14
T9 sequence (Q16539 whole entry): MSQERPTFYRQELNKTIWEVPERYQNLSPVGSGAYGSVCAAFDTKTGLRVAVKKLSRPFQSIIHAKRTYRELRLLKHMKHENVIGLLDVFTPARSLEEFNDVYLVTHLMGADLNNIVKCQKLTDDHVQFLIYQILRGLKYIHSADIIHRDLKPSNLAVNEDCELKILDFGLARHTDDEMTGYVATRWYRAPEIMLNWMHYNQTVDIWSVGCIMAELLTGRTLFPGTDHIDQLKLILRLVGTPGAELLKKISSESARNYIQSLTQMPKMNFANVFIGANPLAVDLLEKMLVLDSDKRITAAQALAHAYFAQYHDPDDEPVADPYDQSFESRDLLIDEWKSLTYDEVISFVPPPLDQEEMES

p38-delta = biological target: T10, p38-delta (Homo sapiens, UniProt O15264)
T10 construct: gene MAPK13
T10 sequence (O15264 whole entry): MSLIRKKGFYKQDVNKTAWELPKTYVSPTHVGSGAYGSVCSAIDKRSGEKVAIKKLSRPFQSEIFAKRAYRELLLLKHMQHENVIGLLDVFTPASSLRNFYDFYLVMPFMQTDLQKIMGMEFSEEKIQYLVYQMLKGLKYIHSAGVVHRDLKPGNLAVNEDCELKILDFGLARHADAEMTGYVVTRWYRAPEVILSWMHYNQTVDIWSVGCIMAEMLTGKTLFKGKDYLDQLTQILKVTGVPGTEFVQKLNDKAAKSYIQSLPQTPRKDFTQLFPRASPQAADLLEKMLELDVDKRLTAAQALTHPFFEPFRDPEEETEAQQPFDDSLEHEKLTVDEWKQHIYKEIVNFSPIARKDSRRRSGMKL

## Cc1cn(-c2cc(NC(=O)c3ccc4c(c3)CN(c3cncnc3)C[C@@H]4C)cc(C(F)(F)F)c2)cn1 [Compound 6j]
[1]
  remaining activity at 1 µM: 72%
BRSK2
  remaining activity at 1 µM: 94%
CAMK2B
  remaining activity at 1 µM: 95%
CSNK1A1
  remaining activity at 1 µM: 57%
CSNK1G2
  remaining activity at 1 µM: 92%
CSNK2A2
  remaining activity at 1 µM: 93%
EPHA7
  remaining activity at 1 µM: 62%
ERK8
  remaining activity at 1 µM: 84%
GAK
  remaining activity at 1 µM: 95%
ICK
  remaining activity at 1 µM: 100%
INSR
  remaining activity at 1 µM: 100%
[2]
  remaining activity at 1 µM: 100%
LCK
  remaining activity at 1 µM: 74%
LKB1
  remaining activity at 1 µM: 77%
MAP3K15
  remaining activity at 1 µM: 100%
MAP3K2
  remaining activity at 1 µM: 92%
MEK1
  remaining activity at 1 µM: 94%
MEK6
  remaining activity at 1 µM: 98%
MET(Y1235D)
  remaining activity at 1 µM: 68%
MKK7
  remaining activity at 1 µM: 100%
MYLK2
  remaining activity at 1 µM: 100%
NEK7
  remaining activity at 1 µM: 87%
NIK
  remaining activity at 1 µM: 100%
NLK
  remaining activity at 1 µM: 61%
PIK3C2B
  remaining activity at 1 µM: 100%
PRKD3
  remaining activity at 1 µM: 100%
PRKX
  remaining activity at 1 µM: 96%
RIPK4
  remaining activity at 1 µM: 100%
[3]
  remaining activity at 1 µM: 97%
SRC
  remaining activity at 1 µM: 94%
SRMS
  remaining activity at 1 µM: 100%
TAK1
  remaining activity at 1 µM: 93%
TNNI3K
  remaining activity at 1 µM: 65%
p38-alpha
  remaining activity at 1 µM: 62%
p38-delta
  remaining activity at 1 µM: 70%
